One compound from patent publication US4933456A, “Dipyridoxyl phosphate NMRI contrast agents” (Salutar, Inc., priority 1987, dated 1990) can be followed below.

The procedure of the data set:
The compound DPDP was studied potentiometrically from pH 11.2 to 2.0. Data sets were collected on a custom-built automatic potentiometric titration apparatus composed of a METROHM 655 DOSIMAT automatic buret, a FISHER ACCUMET pH meter with a CORNING calomel combination electrode, a custom-blown water jacketed titration cell, a BRINKMAN LAUDA K-2/R constant temperature bath and a COMMODORE 64 computer. […] Data analysis was performed on an IBM-AT computer using the least squares program, BETA (Harris, W. et al, supra), and the data analysis program, HANDNBAR (Harris, W. et al, supra). The titrants were standardized by phenophthalein titration as follows: KOH was calibrated against potassium hydrogen phthalate (a primary standard), and HCl solutions were calibrated against the KOH standard. […] All solutions were made from distilled, deionized water that was further purified on a MILLI-Q cartridge system, degassed, and then kept under an atmosphere of argon which had been scrubbed for CO2 and O2. Additions of EDTA and Mn(II) solutions were performed using calibrated GILMOT pipets.
The metal complex titration was performed by adding 152.2 mg (0.2383 mmoles) to 74.6 ml of a high pH aqueous solution.

`Cc1ncc(COP(=O)(O)O)c(CN(CCN(CC(=O)[O-])Cc2c(COP(=O)(O)O)cnc(C)c2O)CC(=O)[O-])c1O.[Mn+2]` [Mn(DPDP), sodium-calcium salt of a manganese chelate complex of N,N,-bis-(pyridoxal-5-phosphate)ethylenediamine-N,N'-diacetic acid or N,N'-bis(3-hydroxy-2-methyl-5-phosphonomethyl-4-pyridylmethyl)ethylenediamine-N,N'-diacetic acid]: where the note is “Mn(II) chelate, potentiometric, pH 11.1 to 2.0”, the “log Kf (formation constant)” value is 14.8. Besides, the “binding of Mn(II) ion to the chelating agent at physiological pH” value (physiological pH, Mn stabilized at the +2 valence) is “quantitatively bound”. Moreover, the “pH below which the complex begins to demetallate” value (titration data) was “below 4.5”.
